Test results from BindingDB's records for doi:10.1016/j.bmc.2004.09.036 (University of Alabama At Birmingham, 2005).

What was measured:
Test in all cases: Protease Inhibition Assay
[1] = target: T1, Genome polyprotein [1066-1250,R1182K]/[1394-1440,K1405R,D1408E] (dengue virus type 2, UniProt P14340+P27914, D1408E/K1405R/R1182K); conditions: pH 8.5; 23 °C
T1 construct: 1066-1250; 1394-1440
Description: (§1) All proteases were assayed by monitoring the cleavage of peptide substrate with fluorescent reporter at room temperature with a microtiter plate spectrofluorometer. Three different concentrations of inhibitors were used for calculating Ki values. Kinetic data were measured with an excitation wavelength of 390nm and emission wavelength of 460nm. From the initial velocities of the reactions Ki values were calculated by nonlinear regression method using the program EZ-fit (Perella Scientific).

[2] = target: T2, Genome polyprotein [1424-1463]/[1502-1685] (West Nile virus, UniProt P06935); conditions: pH 8.5; 23 °C
T2 construct: 1424-1463; 1502-1685
T2 sequence (P06935 whole entry) 1: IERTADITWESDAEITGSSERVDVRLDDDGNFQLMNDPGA
T2 sequence (P06935 whole entry) 2: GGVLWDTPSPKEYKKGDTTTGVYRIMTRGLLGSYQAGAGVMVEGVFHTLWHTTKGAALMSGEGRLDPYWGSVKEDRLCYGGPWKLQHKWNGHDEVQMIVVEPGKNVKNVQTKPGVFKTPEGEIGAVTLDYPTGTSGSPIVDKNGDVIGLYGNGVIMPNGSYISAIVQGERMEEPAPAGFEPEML
Description: as §1

Serine protease 1 = target: T3, Serine protease 1 (Bos taurus, UniProt P00760); conditions: pH 7.6; 23 °C
T3 sequence (P00760 whole entry): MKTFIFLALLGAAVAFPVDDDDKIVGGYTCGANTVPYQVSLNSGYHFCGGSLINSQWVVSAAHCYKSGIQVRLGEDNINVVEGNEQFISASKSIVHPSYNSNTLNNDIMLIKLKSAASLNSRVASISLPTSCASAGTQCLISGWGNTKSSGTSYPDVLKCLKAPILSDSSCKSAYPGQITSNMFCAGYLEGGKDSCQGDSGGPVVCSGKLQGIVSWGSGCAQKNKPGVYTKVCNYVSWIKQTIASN
Description: as §1

T1 sequence (P14340 1394-1440, looked up, stated change not applied): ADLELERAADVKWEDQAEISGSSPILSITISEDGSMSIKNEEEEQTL
T1 sequence (P27914 1066-1250, looked up, stated change not applied): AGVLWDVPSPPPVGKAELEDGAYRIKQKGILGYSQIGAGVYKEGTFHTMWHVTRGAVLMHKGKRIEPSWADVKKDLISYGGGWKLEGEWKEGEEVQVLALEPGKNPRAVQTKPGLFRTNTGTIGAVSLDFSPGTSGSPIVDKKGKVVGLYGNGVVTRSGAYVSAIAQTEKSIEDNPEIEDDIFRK

SMILES: N=C(N)NN=CC=NN=C(N)N [biguanidine, 2]
- Ki [1]: 423 µM
- Ki [2]: 337 µM
- Ki (Serine protease 1): 155 µM

SMILES: NC(N)=NNc1ccc(NNC(N)N)cc1 [biguanidine, 3]
- Ki [1]: 1780 µM
- Ki [2]: 1090 µM
- Ki (Serine protease 1): 51 µM

SMILES: Cc1ccc(C(=NN=C(N)N)P(O)O)cc1 [guanidine, 5]
- Ki [1]: 14 µM
- Ki [2]: 13 µM
- Ki (Serine protease 1): 3.2 µM

SMILES: NC(N)=NN=Cc1ccc(C=NN=C(N)N)cc1 [biguanidine, 1]
- Ki [1]: 44 µM
- Ki [2]: 35 µM
- Ki (Serine protease 1): 87 µM

SMILES: NC(N)=NN=C1C(=O)Nc2ccccc21 [guanidine, 4]
- Ki [1]: 23 µM
- Ki [2]: 16 µM
- Ki (Serine protease 1): 4 µM
